Source: PubChem BioAssay AID1259407 (Chemical Carcinogenesis Research Information System (CCRIS), 2018)
Activity calls are given as the source filed them. No rule for the calls is given here.

System: CCRIS mutagenicity, Ames/micronucleus/aberration tests
Assay: CCRIS mutagenicity studies

Measured: mutagenic call

Nc1cccc(N)c1
inactive: End Point: IN VITRO CHROMOSOMAL ABERRATIONS, Test System: CHINESE HAMSTER OVARY CELLS (CHO), Metabolic Activation: RAT, LIVER, S-9, AROCLOR 1254 inactive; negative | Test System: AMES SALMONELLA TYPHIMURIUM, Strain/Indicator: TA97, Metabolic Activation: NONE, Method: PREINCUBATION inactive; negative | Test System: AMES SALMONELLA TYPHIMURIUM, Strain/Indicator: TA98(1,8-DNP6), Metabolic Activation: TOBACCO, TX1 CELLS, Method: PREINCUBATION inactive; negative | Test System: AMES SALMONELLA TYPHIMURIUM, Strain/Indicator: TA100, Metabolic Activation: NONE, Method: STANDARD PLATE inactive; negative | Test System: AMES SALMONELLA TYPHIMURIUM, Strain/Indicator: TA100, Metabolic Activation: PEA APICAL BUD S-9, Method: PREINCUBATION inactive; negative | Test System: AMES SALMONELLA TYPHIMURIUM, Strain/Indicator: TA100, Metabolic Activation: PEA APICAL BUD S-9, Method: STANDARD PLATE inactive; negative | Test System: AMES SALMONELLA TYPHIMURIUM, Strain/Indicator: TA1535, Metabolic Activation: HAMSTER, LIVER, S-9, AROCLOR 1254 (10%), Method: PREINCUBATION inactive; negative | Test System: AMES SALMONELLA TYPHIMURIUM, Strain/Indicator: TA1535, Metabolic Activation: NONE, Method: PREINCUBATION inactive; negative | Test System: AMES SALMONELLA TYPHIMURIUM, Strain/Indicator: TA1535, Metabolic Activation: RAT, LIVER, S-9, AROCLOR 1254 (30%), Method: PREINCUBATION inactive; negative | Test System: AMES SALMONELLA TYPHIMURIUM, Strain/Indicator: YG1024, Metabolic Activation: NONE, Method: PREINCUBATION inactive; negative | Test System: AMES SALMONELLA TYPHIMURIUM, Strain/Indicator: YG1024, Metabolic Activation: NONE, Method: STANDARD PLATE inactive; negative | Test System: AMES SALMONELLA TYPHIMURIUM, Strain/Indicator: YG1029, Metabolic Activation: NONE, Method: STANDARD PLATE inactive; negative | Test System: AMES SALMONELLA TYPHIMURIUM, Strain/Indicator: YG1029, Metabolic Activation: PLANT (PERSEA AMERICANA) S-117, Method: STANDARD PLATE inactive; negative | Test System: Ames Salmonella typhimurium, Strain/Indicator: TA98, Metabolic Activation: None, Method: Preincubation inactive; negative | Test System: Ames Salmonella typhimurium, Strain/Indicator: TA100, Metabolic Activation: None, Method: Preincubation inactive; negative | Test System: Ames Salmonella typhimurium, Strain/Indicator: TA100, Metabolic Activation: Rat, Liver, S9, Sodium phenobarbital and 5,6-benzoflavone (10%), Method: Preincubation inactive; negative | Test System: Ames Salmonella typhimurium, Strain/Indicator: TA100, Metabolic Activation: Rat, Liver, S9, Sodium phenobarbital and 5,6-benzoflavone, Method: Preincubation inactive; positive (repeat assay negative) | Test System: Ames Salmonella typhimurium, Strain/Indicator: TA1535, Metabolic Activation: None, Method: Preincubation inactive; negative | Test System: Ames Salmonella typhimurium, Strain/Indicator: TA1535, Metabolic Activation: Rat, Liver, S9, Sodium phenobarbital and 5,6-benzoflavone (10%), Method: Preincubation inactive; negative | Test System: Ames Salmonella typhimurium, Strain/Indicator: TA1537, Metabolic Activation: None, Method: Preincubation inactive; negative | Test System: E. coli, Strain/Indicator: WP2uvrA/pKM101, Metabolic Activation: None, Method: Preincubation inactive; negative | Test System: E. coli, Strain/Indicator: WP2uvrA/pKM101, Metabolic Activation: Rat, Liver, S9, Sodium phenobarbital and 5,6-benzoflavone (10%), Method: Preincubation inactive; negative | Test System: UDS RODENT HEPATOCYTES, Strain/Indicator: THY INCORP (NON-S-PHASE), Metabolic Activation: NONE, Method: AUTORADIOGRAPHY inactive; negative
active: End Point: IN VITRO CHROMOSOMAL ABERRATIONS, Test System: CHINESE HAMSTER LUNG CELLS (CHL), Metabolic Activation: RAT, LIVER, S-9, KC-400 active; positive (structural changes) | End Point: IN VITRO CHROMOSOMAL ABERRATIONS, Test System: CHINESE HAMSTER OVARY CELLS (CHO), Metabolic Activation: NONE active; positive (structural changes) | End Point: IN VITRO CHROMOSOMAL ABERRATIONS, Test System: CHL CELLS, Metabolic Activation: NONE active; positive (structural changes) | End Point: IN VITRO CHROMOSOMAL ABERRATIONS, Test System: CHL CELLS, Metabolic Activation: RAT, LIVER, S-9, SODIUM PHENOBARBITAL AND 5,6-BENZOFLAVONE active; positive (structural changes) | End Point: IN VITRO CHROMOSOMAL ABERRATIONS, Test System: CHL/IU CELLS, Metabolic Activation: NONE active; positive (ploidy changes) | End Point: IN VITRO MICRONUCLEUS, Test System: CHL/IU CELLS, Metabolic Activation: NONE active; positive | Test System: AMES SALMONELLA TYPHIMURIUM, Strain/Indicator: TA97, Metabolic Activation: HAMSTER, LIVER, S-9, AROCLOR 1254 (10%), Method: PREINCUBATION active; positive | Test System: AMES SALMONELLA TYPHIMURIUM, Strain/Indicator: TA97, Metabolic Activation: RAT, LIVER, S-9, AROCLOR 1254 (4 OR 10%), Method: STANDARD PLATE active; positive | Test System: AMES SALMONELLA TYPHIMURIUM, Strain/Indicator: TA97, Metabolic Activation: RAT, LIVER, S-9, AROCLOR 1254 (10%), Method: PREINCUBATION active; positive | Test System: AMES SALMONELLA TYPHIMURIUM, Strain/Indicator: TA98, Metabolic Activation: HAMSTER, LIVER, S-9, AROCLOR 1254 (10%), Method: PREINCUBATION active; positive | Test System: AMES SALMONELLA TYPHIMURIUM, Strain/Indicator: TA98, Metabolic Activation: PEA APICAL BUD S-9, Method: PREINCUBATION active; positive | Test System: AMES SALMONELLA TYPHIMURIUM, Strain/Indicator: TA98, Metabolic Activation: PEA APICAL BUD S-9, Method: STANDARD PLATE active; positive | Test System: AMES SALMONELLA TYPHIMURIUM, Strain/Indicator: TA98, Metabolic Activation: PLANT (PERSEA AMERICANA) S-117, Method: STANDARD PLATE active; positive | Test System: AMES SALMONELLA TYPHIMURIUM, Strain/Indicator: TA98, Metabolic Activation: PLANT (ZEA MAYS) S-9, Method: STANDARD PLATE active; positive | Test System: AMES SALMONELLA TYPHIMURIUM, Strain/Indicator: TA98, Metabolic Activation: RAT, BLADDER, S-9, PCB, Method: FLUCTUATION TEST active; positive | Test System: AMES SALMONELLA TYPHIMURIUM, Strain/Indicator: TA98, Metabolic Activation: RAT, LIVER, S-9, AROCLOR 1254 (10%), Method: PREINCUBATION active; positive | Test System: AMES SALMONELLA TYPHIMURIUM, Strain/Indicator: TA98, Metabolic Activation: RAT, LIVER, S-9, AROCLOR 1254, Method: PREINCUBATION active; positive | Test System: AMES SALMONELLA TYPHIMURIUM, Strain/Indicator: TA98, Metabolic Activation: RAT, LIVER, S-9, AROCLOR 1254, Method: STANDARD PLATE active; positive | Test System: AMES SALMONELLA TYPHIMURIUM, Strain/Indicator: TA98, Metabolic Activation: RAT, LIVER, S-9, PCB, Method: PREINCUBATION active; positive | Test System: AMES SALMONELLA TYPHIMURIUM, Strain/Indicator: TA98, Metabolic Activation: RAT, LIVER, S-9, PHENOBARBITAL AND 5,6-BENZOFLAVONE, Method: PREINCUBATION active; positive | Test System: AMES SALMONELLA TYPHIMURIUM, Strain/Indicator: TA98, Metabolic Activation: S-9, Method: PREINCUBATION active; positive | Test System: AMES SALMONELLA TYPHIMURIUM, Strain/Indicator: TA98, Metabolic Activation: TOBACCO, TX1 CELLS, Method: PREINCUBATION active; positive | Test System: AMES SALMONELLA TYPHIMURIUM, Strain/Indicator: TA100, Metabolic Activation: HAMSTER, LIVER, S-9, AROCLOR 1254 (10%), Method: PREINCUBATION active; positive | Test System: AMES SALMONELLA TYPHIMURIUM, Strain/Indicator: TA100, Metabolic Activation: RAT, BLADDER, S-9, PCB, Method: FLUCTUATION TEST active; positive | Test System: AMES SALMONELLA TYPHIMURIUM, Strain/Indicator: TA100, Metabolic Activation: RAT, LIVER, S-9, AROCLOR 1254 (10%), Method: PREINCUBATION active; positive | Test System: AMES SALMONELLA TYPHIMURIUM, Strain/Indicator: TA100, Metabolic Activation: RAT, LIVER, S-9, AROCLOR 1254, Method: PREINCUBATION active; positive | Test System: AMES SALMONELLA TYPHIMURIUM, Strain/Indicator: TA100, Metabolic Activation: RAT, LIVER, S-9, PCB, Method: PREINCUBATION active; positive | Test System: AMES SALMONELLA TYPHIMURIUM, Strain/Indicator: TA100, Metabolic Activation: S-9, Method: PREINCUBATION active; positive | Test System: AMES SALMONELLA TYPHIMURIUM, Strain/Indicator: TA1535, Metabolic Activation: HAMSTER, LIVER, S-9, AROCLOR 1254 (30%), Method: PREINCUBATION active; positive | Test System: AMES SALMONELLA TYPHIMURIUM, Strain/Indicator: TA1535, Metabolic Activation: RAT, LIVER, S-9, AROCLOR 1254 (5%), Method: PREINCUBATION active; positive | Test System: AMES SALMONELLA TYPHIMURIUM, Strain/Indicator: TA1537, Metabolic Activation: RAT, LIVER, S-9, AROCLOR 1254 (4 OR 10%), Method: STANDARD PLATE active; positive | Test System: AMES SALMONELLA TYPHIMURIUM, Strain/Indicator: TA1538, Metabolic Activation: RAT, LIVER, S-9, AROCLOR 1254 (4 OR 10%), Method: STANDARD PLATE active; positive | Test System: AMES SALMONELLA TYPHIMURIUM, Strain/Indicator: TA1538, Metabolic Activation: RAT, LIVER, S-9, PHENOBARBITAL, Method: STANDARD PLATE active; positive | Test System: AMES SALMONELLA TYPHIMURIUM, Strain/Indicator: YG1021, Metabolic Activation: RAT, LIVER, S-9, PHENOBARBITAL AND 5,6-BENZOFLAVONE, Method: PREINCUBATION active; positive | Test System: AMES SALMONELLA TYPHIMURIUM, Strain/Indicator: YG1024, Metabolic Activation: CELL-FREE PLANT MIXTURE TX1MX, Method: PREINCUBATION active; positive | Test System: AMES SALMONELLA TYPHIMURIUM, Strain/Indicator: YG1024, Metabolic Activation: PLANT (PERSEA AMERICANA) S-117, Method: STANDARD PLATE active; positive | Test System: AMES SALMONELLA TYPHIMURIUM, Strain/Indicator: YG1024, Metabolic Activation: PLANT (ZEA MAYS) S-9, Method: STANDARD PLATE active; positive | Test System: AMES SALMONELLA TYPHIMURIUM, Strain/Indicator: YG1024, Metabolic Activation: RAT LIVER S-9, AROCLOR 1254, Method: STANDARD PLATE active; positive | Test System: AMES SALMONELLA TYPHIMURIUM, Strain/Indicator: YG1024, Metabolic Activation: RAT LIVER S-9, Method: STANDARD PLATE active; positive | Test System: AMES SALMONELLA TYPHIMURIUM, Strain/Indicator: YG1024, Metabolic Activation: RAT, LIVER, S-9, PHENOBARBITAL AND 5,6-BENZOFLAVONE, Method: PREINCUBATION active; positive | Test System: AMES SALMONELLA TYPHIMURIUM, Strain/Indicator: YG1024, Metabolic Activation: TOBACCO, TX1 CELLS, Method: PREINCUBATION active; positive | Test System: AMES SALMONELLA TYPHIMURIUM, Strain/Indicator: YG1041, Metabolic Activation: RAT, LIVER, S-9, PHENOBARBITAL AND 5,6-BENZOFLAVONE, Method: PREINCUBATION active; positive | Test System: Ames Salmonella typhimurium, Strain/Indicator: TA98, Metabolic Activation: Rat, Liver, S9, Sodium phenobarbital and 5,6-benzoflavone (10%), Method: Preincubation active; positive | Test System: Ames Salmonella typhimurium, Strain/Indicator: TA1537, Metabolic Activation: Rat, Liver, S9, Sodium phenobarbital and 5,6-benzoflavone (10%), Method: Preincubation active; positive
